This test has as its target USP7 (Homo sapiens (Human), UniProt Q93009). As to the kind of experiment: USP7 Assays A and B (Ubiquitin-Rhodamine 110 assay). The following applies: USP7 (208-1102) 6*His; substrate Ub-Rh110 25 nM; assays A and B not distinguished. In kind it is biochemical. The method, then: Example 9: USP7 Assay A (Ubitquin-Rhodamine 110 Assay)
Each assay was performed in a final volume of 15 μL in assay buffer containing 20 mM Tris-HCl (pH 8.0, (1M Tris-HCl, pH 8.0 solution; Corning 46-031-CM)), 1 mM GSH (L-Glutathione reduced; Sigma #G4251), 0.03% BGG (0.22 μM filtered, Sigma, #G7516-25G), and 0.01% Triton X-100 (Sigma, #T9284-10L). Nanoliter quantities of either an 8-point or 10-point, 3-fold serial dilution in DMSO was pre-dispensed into assay plates (Perkin Elmer, ProxiPlate-384 F Plus, #6008269) for a final test concentration range of either 25 μM to 11 nM or 25 μM to 1.3 nM, respectively. The final concentration of the enzyme (USP7, construct USP7 (208-1102) 6*His, Viva Biotech) in the assay was 62.5 pM. Final substrate (Ub-Rh110; Ubiquitin-Rhodamine 110, R&D Systems #U-555) concentration was 25 nM with [Ub-Rh110]<<Km. 5 μL of 2× enzyme was added to assay plates (pre-stamped with compound) preincubated with USP7 for 30 min and then 5 μL of 2×Ub-Rh110 was added to assay plates. Plates were incubated stacked for 20 min at room temperature before 5 μL of stop solution (final concentration of 10 mM citric acid in assay buffer (Sigma, #251275-500G)). Fluorescence was read on the Envision (Excitation at 485 nm and Emission at 535 nm; Perkin Elmer) or on the PheraSTAR (Excitation at 485 nm and Emission at 535 nm; BMG Labtech).
Example 10: USP7 Assay B (Ubitquin-Rhodamine 110 Assay)
Each assay was performed in a final volume of 20 μL in assay buffer containing 20 mM Tris-HCl (pH 8.0, (1M Tris-HCl, pH 8.0 solution; Corning 46-031-CM)), 2 mM CaCl2 (1M Calcium Chloride solution; Sigma #21114) 1 mM GSH (L-Glutathione reduced; Sigma #G4251), 0.01% Prionex (0.22 μM filtered, Sigma #G-0411), and 0.01% Triton X-100. Stock compound solutions were stored at −20° C. as 10 mM in DMSO. Up to 1 month prior to the assay, 2 mM test compounds were pre-dispensed into assay plates (Black, low volume; Corning #3820) and frozen at −20° C. Prestamped assay plates were allowed to come to room temperature on the day of the assay. For the screen, 100 nL of 2 mM was pre-dispensed for a final screening concentration of 10 μM (DMSO(fc)=0.5%). For follow-up studies, 250 nL of an 8-point, 3-fold serial dilution in DMSO was pre-dispensed into assay plates for a final test concentration of 25 μM-11 nM (1.25% DMSO final concentration). Unless otherwise indicated, all follow-up assays were run on triplecate plates. Enzyme (USP7, construct Met (208-1102)-TEV-6*His; Viva Q93009-1) concentration and incubation times were optimized for the maximal signal-to-background while maintaining initial velocity conditions at a fixed substrate concentration. The final concentration of the enzyme in the assay was either 75 pM or 250 pM. Final substrate (Ub-Rh110; Ubiquitin-Rhodamine 110, R&D Systems (biotechne)#U-555) concentration was 25 nM with [Ub-Rh110]<<Km. Pre-stamped with compounds were either not preincubated or preincubated with USP7 between 30 to 120 min prior to the addition of 10 μL of 2×Ub-Rh110 to compound plates. Plates were incubated stacked for either 23 or 45 min at room temperature before fluorescence was read on the Envision (Excitation at 485 nm and Emission at 535 nm; Perkin Elmer) or on the PheraSTAR (Excitation at 485 nm and Emission at 535 nm; BMG Labtech).
Data from USP7 Assays A and B were reported as percent inhibition (inh) compared with control wells based on the following equation: % inh=1−((FLU−AveLow)/(AveHigh−AveLow)) where FLU=measured Fluorescence. AveLow=average Fluorescence of no enzyme control (n=16). AveHigh=average Fluorescence of DMSO control (n=16). IC50 values were determined by curve fitting of the standard 4 parameter logistic fitting algorithm included in the Activity Base software package: IDBS XE Designer Model205. Data is fitted using the Levenburg Marquardt algorithm.
Sequence of USP7 (Q93009 208-1102): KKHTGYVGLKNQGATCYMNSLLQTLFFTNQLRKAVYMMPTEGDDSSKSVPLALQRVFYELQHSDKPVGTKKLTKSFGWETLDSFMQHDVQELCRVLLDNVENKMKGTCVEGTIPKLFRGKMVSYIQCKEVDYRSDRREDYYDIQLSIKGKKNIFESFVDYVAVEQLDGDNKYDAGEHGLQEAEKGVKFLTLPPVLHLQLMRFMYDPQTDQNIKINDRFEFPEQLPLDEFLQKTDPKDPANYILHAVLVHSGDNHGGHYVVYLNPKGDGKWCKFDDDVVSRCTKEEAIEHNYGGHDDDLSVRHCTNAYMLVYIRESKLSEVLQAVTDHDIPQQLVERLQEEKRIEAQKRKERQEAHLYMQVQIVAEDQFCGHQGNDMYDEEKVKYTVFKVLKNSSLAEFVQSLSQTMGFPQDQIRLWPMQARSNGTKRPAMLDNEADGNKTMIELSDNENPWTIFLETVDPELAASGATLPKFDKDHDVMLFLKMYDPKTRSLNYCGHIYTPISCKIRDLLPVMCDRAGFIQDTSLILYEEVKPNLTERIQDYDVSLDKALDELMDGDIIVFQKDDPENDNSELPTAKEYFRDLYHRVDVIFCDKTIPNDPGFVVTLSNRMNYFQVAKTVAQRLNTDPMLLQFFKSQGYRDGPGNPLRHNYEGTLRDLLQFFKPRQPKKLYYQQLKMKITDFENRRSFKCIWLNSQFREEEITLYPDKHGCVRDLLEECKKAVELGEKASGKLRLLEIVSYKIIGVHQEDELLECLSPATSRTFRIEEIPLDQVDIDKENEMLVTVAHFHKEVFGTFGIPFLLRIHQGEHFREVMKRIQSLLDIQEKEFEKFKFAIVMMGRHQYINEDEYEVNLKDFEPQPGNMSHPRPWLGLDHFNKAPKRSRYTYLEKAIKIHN
The IC50 is the concentration needed to halve the response being measured. The compound `CC(CC(=O)N1CCC(O)(Cn2cnc3cc(N)ccc3c2=O)CC1)c1ccccc1` (stereo not shown) [Compound I-3, 7-amino-3-((4-hydroxy-1-(3-phenylbutanoyl)piperidin-4-yl)methyl)quinazolin-4(3H)-one] had an IC50 below 200 nM.
In turn, `CC(=O)Nc1ccc2c(=O)n(CC3(O)CCN(C(=O)CC(C)c4ccccc4)CC3)cnc2c1` (stereo not shown) [Compound I-4, N-(3-((4-hydroxy-1-(3-phenylbutanoyl)piperidin-4-yl)methyl)-4-oxo-3,4-dihydroquinazolin-7-yl)acetamide] had an IC50 below 200 nM.
As to `CC(CC(=O)N1CCC(O)(Cn2cnc3cccnc3c2=O)CC1)c1ccccc1` (stereo not shown) [Compound I-13, 3-((4-hydroxy-1-(3-phenylbutanoyl)piperidin-4-yl)methyl)pyrido[3,2-d]pyrimidin-4(3H)-one], the IC50 fell in the range of 200 to 1000 nM.
Under `COc1ccc2c(=O)n(CC3(O)CCN(C(=O)C[C@@H](C)c4ccccc4)CC3)cnc2c1` [Compound I-5, (R)-3-((4-hydroxy-1-(3-phenylbutanoyl)piperidin-4-yl)methyl)-7-methoxyquinazolin-4(3H)-one] stands below 200 nM; under `CC(CC(=O)N1CCC(O)(Cn2cnc3cnccc3c2=O)CC1)c1ccccc1` (stereo not shown) [Compound I-12, 3-((4-hydroxy-1-(3-phenylbutanoyl)piperidin-4-yl)methyl)pyrido[3,4-d]pyrimidin-4(3H)-one], 1000 to 10000 nM; under `O=C(c1ccc(F)cc1)N1CCC(O)(Cn2cnc3c(Oc4ccc(F)cc4)cccc3c2=O)CC1` [Compound I-10, 3-((1-(4-fluorobenzoyl)-4-hydroxypiperidin-4-yl)methyl)-8-(4-fluorophenoxy)quinazolin-4(3H)-one], 1000 to 10000 nM.
The value for `COc1ccc2c(=O)n(CC3(O)CCN(C(=O)CC(C)c4ccccc4)CC3)cnc2c1` (stereo not shown) [Compound I-1, 3-((4-hydroxy-1-(3-phenylbutanoyl)piperidin-4-yl)methyl)-7-methoxyquinazolin-4(3H)-one] was below 200 nM.
Under `O=C(c1ccccc1)N1CCC(O)(Cn2cnc3c(-c4ccccc4)cccc3c2=O)CC1` [Compound I-9, 3-((1-benzoyl-4-hydroxypiperidin-4-yl)methyl)-8-phenylquinazolin-4(3H)-one] stands 1000 to 10000 nM.
Regarding `O=C(c1ccccc1)N1CCC(O)(Cn2cnc3cc(-c4ccccc4)ccc3c2=O)CC1` [Compound I-8, 3-((1-benzoyl-4-hydroxypiperidin-4-yl)methyl)-7-phenylquinazolin-4(3H)-one], the IC50 was above 10000 nM.
Under `Cc1cccc2c(=O)n(CC3(O)CCN(C(=O)C[C@@H](C)c4ccccc4)CC3)cnc12` [Compound I-6, (R)-3-((4-hydroxy-1-(3-phenylbutanoyl)piperidin-4-yl)methyl)-8-methylquinazolin-4(3H)-one] stands below 200 nM; under `Cc1cccc2c(=O)n(CC3(O)CCN(C(=O)CC(C)c4ccccc4)CC3)cnc12` (stereo not shown) [Compound I-2, 3-((4-hydroxy-1-(3-phenylbutanoyl)piperidin-4-yl)methyl)-8-methylquinazolin-4(3H)-one], below 200 nM.
`Cc1ccc2c(=O)n(CC3(O)CCN(C(=O)c4ccc5c(c4)CCN5Cc4ccccc4)CC3)cnc2c1` [Compound I-7, 3-((1-(1-benzylindoline-5-carbonyl)-4-hydroxypiperidin-4-yl)methyl)-7-methylquinazolin-4(3H)-one] showed an IC50 of 1000 to 10000 nM.
Under `CC(CC(=O)N1CCC(O)(Cn2cnc3ncccc3c2=O)CC1)c1ccccc1` (stereo not shown) [Compound I-11, 3-((4-hydroxy-1-(3-phenylbutanoyl)piperidin-4-yl)methyl)pyrido[2,3-d]pyrimidin-4(3H)-one] stands above 10000 nM.
